Source: patent publication US20060134243A1, “Method of using extracts of epimedium species” (Bionovo, Inc., priority 2004, published 2006)

Assays:
[1] = system: estrogen receptor-positive breast cancer; settings: five years of therapy; cited from earlier work
[2] = system: TNF-RE-tk-Luc; assay: Effect of antiestrogens on TNF-RE-tk-Luc (Example 2); assay type: cell-based, human; settings: for effect on the repression induced by E2: TNF-RE-tk-Luc; for activation of TNF-RE-tk-Luc: antiestrogens, in contrast to E2
Text: (§1) Plasmid Construction. A PstI to AhaII fragment from the human TNF-α gene, pLT, was cloned upstream of the luciferase cDNA. […] ERβ mutants were created with QuikChange site-directed mutagenesis kits (Stratagene), by using oligonucleotides containing the mutation. The mutants were sequenced with Sequenase kits (Amersham Pharmacia) to verify the presence of the mutation.
(§2) For experiments, cells were collected, transferred to a cuvette, and then electroporated with a Bio-Rad gene pulser as described previously using 3 μg of reporter plasmid and 1 μg of ERα or ERβ expression vectors. After electroporation, the cells were re-suspended in media and plated at 1 ml/dish in 12-well multiplates. […] The concentration of hormone required to produce a half-maximal induction (EC50) or inhibition (IC50) of luciferase activity was calculated with the Prism curve-fitting program (Graph Pad Software, version 2.0b). […] The cells were plated in duplicate at a density of 25,000 cells/35-mm plate in tissue culture medium containing 3% stripped fetal bovine serum. […] After 8 days the cells were counted with a Coulter counter.

[3] = system: primary invasive breast cancer; settings: women at high risk for breast cancer; cited from earlier work
[4] = system: breast cancer; settings: among the 5129 women in the treatment group; median follow-up of 40 months; cited from earlier work
[5] = molecular target: T1, ERβ (Homo sapiens, UniProt Q92731); assay: Repression of TNF-α activation of TNF-RE-tk-Luc in U2OS cells with transfected ERβ; assay type: cell-based
T1 construct: expressed in transfected cells
T1 sequence (Q92731 whole entry): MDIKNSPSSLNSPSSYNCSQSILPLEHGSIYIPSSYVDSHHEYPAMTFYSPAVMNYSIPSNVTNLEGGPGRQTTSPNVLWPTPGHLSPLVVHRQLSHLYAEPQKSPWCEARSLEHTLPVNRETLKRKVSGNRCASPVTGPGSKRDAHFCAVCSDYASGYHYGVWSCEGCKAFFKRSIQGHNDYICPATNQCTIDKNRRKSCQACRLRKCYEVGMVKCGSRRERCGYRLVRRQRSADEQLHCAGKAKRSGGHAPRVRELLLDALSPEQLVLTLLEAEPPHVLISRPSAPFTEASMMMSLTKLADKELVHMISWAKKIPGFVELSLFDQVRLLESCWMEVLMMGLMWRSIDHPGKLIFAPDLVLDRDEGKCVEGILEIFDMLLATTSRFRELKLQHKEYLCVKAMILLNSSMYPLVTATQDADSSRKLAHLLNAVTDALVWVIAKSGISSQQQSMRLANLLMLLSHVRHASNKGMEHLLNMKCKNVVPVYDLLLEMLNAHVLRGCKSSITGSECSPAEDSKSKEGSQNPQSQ
Text: as §1, §2
The extracts (a and b) were than decanted and only the soluble material was used.

[6] = molecular target: T1, ERβ; assay: Repression of TNF-α activation of TNF-RE-tk-Luc with ERβ (Example 2); assay type: cell-based; settings: in the presence of ERβ
Text: as §1, §2

Row | SMILES | reduction of mortality from breast cancer [1] | reduction of the risk of recurrences [1] | effect on the repression induced by E2 [2] | activation of TNF-RE-tk-Luc [2] | reduction of the risk of primary invasive breast cancer [3] | cases of breast cancer [4] | repression of TNF-α activation of TNF-RE [5] | repression of TNF-α activation of TNF-RE-tk-Luc [6]
1 | CC/C(=C(\c1ccccc1)c1ccc(OCCN(C)C)cc1)c1ccccc1 [tamoxifen] | 22% | 42% | abolished the repression induced by E2 | 2 fold | 49% | – | – | –
2 | O=C(c1ccc(OCCN2CCCCC2)cc1)c1c(-c2ccc(O)cc2)sc2cc(O)ccc12 [raloxifene] | – | – | abolished the repression induced by E2 | 2 fold | – | 13 | – | –
3 | C[C@]12CC[C@@H]3c4ccc(O)cc4CC[C@H]3[C@@H]1CC[C@@H]2O [E2, estradiol] | – | – | – | – | – | – | 100% | 60-80%
4 | C[C@]12CC[C@@H]3c4ccc(O)cc4C[C@@H](CCCCCCCCC[S+]([O-])CCCC(F)(F)C(F)(F)F)[C@H]3[C@@H]1CC[C@@H]2O (stereo partly drawn) [ICI 182,780] | – | – | abolished the repression induced by E2 | 2 fold | – | – | – | –
